Laboratory results reported in patent publication US11865126B2, “Method for treating anxiety disorders, headache disorders, and eating disorders with psilocybin” (priority 2019, dated 2024).

Test system: healthy subjects
Test: Phase 1 healthy volunteer study, single oral dose: treatment-emergent adverse events
Type: in vivo, human
Conditions: 10 mg
Experimental: A Phase 1 randomized, double-blind, placebo-controlled study to evaluate the effect of psilocybin on cognitive and emotional processing as compared to placebo in healthy volunteers was conducted. The study investigated the short-term (Day 7) and long-term (Day 28) effects of moderate (10 mg) and high doses (25 mg) of psilocybin on key domains of cognition, such as episodic memory, attention, working and spatial memory, social cognition and elements of executive function, including cognitive flexibility.
90 healthy subjects were studied. Approximately 50% of the subjects were psilocybin-naïve. For subjects with prior psilocybin experience, the last exposure was at least 1 year prior to the signing of the Informed Consent Form (ICF). Approximately 50% of the subjects were female. Subjects were stratified by sex and age (18-35 years old; >35 years old).
Each subject was assigned 1 treatment bottle containing 5 capsules packaged in a double-blind fashion, depending on the randomized treatment arm, the bottle contained one of the following: • a. Psilocybin 10 mg: 2×5-mg oral psilocybin capsules plus 3× placebo capsules • b. Psilocybin 25 mg: 5×5-mg oral psilocybin capsules • c. Placebo: 5× placebo capsules
Each 5-mg oral psilocybin capsule comprised 5 mg crystalline psilocybin in the form of Polymorph A, 12.5 mg of SMCC 50, 79.5 mg of SMCC 90, 1 mg sodium starch glycolate, 1 mg colloidal silicon dioxide, and 1 mg sodium stearyl fumarate
Adverse events: Throughout the course of the study, all AEs were monitored and recorded. Each AE was classified according to the following criteria: • i. […] Moderate: The AE produces some impairment of functioning, but is not hazardous to the subject's health. • iii. Severe: The AE produces significant impairment of functioning or incapacitation and is a definite hazard to the subject's health.
Selected Adverse Events of included: • (a) Euphoric mood • (b) Dissociative disorder • (c) Hallucination • (d) Psychotic disorder • (e) Cognitive disorder • (f) Disturbance in attention • (g) Altered mood • (h) Impairment of psychomotor skills • (i) Inappropriate affect • (j) Overdose • (k) Intentional product misuse • (l) Illusion
For example, drug-induced hepatitis that resolved without evidence of hepatic failure would not be considered life threatening even though drug-induced hepatitis can be fatal. • (c) Inpatient hospitalization or prolongation of existing hospitalization. • (d) Persistent or significant disability/incapacity. • (e) Congenital anomaly/birth defect in the offspring of a subject who received psilocybin. • (f) Other: Important medical events that may not result in death, be life-threatening, or require hospitalization, may be considered an SAE when, based upon appropriate medical judgment, they may jeopardize the subject and may require medical or surgical intervention to prevent one of the outcomes listed in this definition. […] Visits:
Visit 3 (V3): Drug Administration (Day 0): The subject was asked to eat a light breakfast at least two hours prior to coming to the clinic for study drug administration. On Day 0 (V3), the subject underwent the SSTS, had vital signs obtained, medications reviewed, AEs recorded and eligibility reviewed prior to being randomized to study drug. The study drug was administered to up to six subjects simultaneously in individual beds separated by a curtain. The subject was invited to put on eyeshades and headphones, lie down and listen to calming music for the rest of the session (six hours). The subject was supported 1:1 with a chaperone and supervised by the study psychiatrist and lead therapist.
Recording of adverse events and prior/concomitant medication was performed at each visit.
During administration of psilocybin, each subject received one on one support from a trained assisting therapist and each dosing session was supervised by a study psychiatrist and a lead therapist. […]

CN(C)CCc1c[nH]c2cccc(OP(=O)(O)O)c12 [psilocybin]
AEs potentially related to study treatment, % of AEs in arm: 92.6%
Affect lability, worst severity Mild: Events: 3
Affect lability, worst severity Mild: N (%): 3 (10.0)
Affect lability, worst severity Moderate: Events: 2
Affect lability, worst severity Severe: Events: 0
Affect lability, worst severity Severe: N (%): 0
Affect lability: Events: 5
Any Selected TEAE: % of subjects: (90.0) %
Any Selected TEAE: N (%): 27
Any TEAE leading to death: Events: 0
Any TEAE leading to death: N (%): 0
Any TEAE leading to study discontinuation: Events: 0
Any TEAE leading to study discontinuation: N (%): 0
Any TEAE related to study treatment: % of subjects: (96.7) %
Any TEAE related to study treatment: N (%): 29
Any TEAE, worst severity Mild: Events: 12
Any TEAE, worst severity Mild: N (%): 6 (20.0)
Any TEAE, worst severity Moderate: Events: 38
Any TEAE, worst severity Severe: Events: 22
Any TEAE: % of subjects: 96.7%
Any serious TEAE related to study treatment: Events: 0
Any serious TEAE related to study treatment: N (%): 0
Any serious TEAE: Events: 0
Any serious TEAE: N (%): 0
Any severe TEAE: % of subjects: (33.3) %
Any severe TEAE: Events: 22
Any severe TEAE: N (%): 10
Emotional disorder, worst severity Mild: Events: 1
Emotional disorder, worst severity Moderate: Events: 1
Emotional disorder, worst severity Severe: Events: 0
Emotional disorder, worst severity Severe: N (%): 0
Emotional disorder: Events: 2
Euphoric mood, worst severity Mild: Events: 0
Euphoric mood, worst severity Mild: N (%): 0
Euphoric mood, worst severity Moderate: Events: 6
Euphoric mood, worst severity Moderate: N (%): 6 (20.0)
Euphoric mood, worst severity Severe: Events: 1
Euphoric mood: Events: 7
Fatigue, worst severity Mild: Events: 6
Fatigue, worst severity Mild: N (%): 6 (20.0)
Fatigue, worst severity Moderate: Events: 3
Fatigue, worst severity Severe: Events: 1
Fatigue: Events: 10
Fatigue: N (%): 9 (30.0)
Feeling abnormal, worst severity Mild: Events: 3
Feeling abnormal, worst severity Mild: N (%): 3 (10.0)
Feeling abnormal, worst severity Moderate: Events: 1
Feeling abnormal, worst severity Severe: Events: 0
Feeling abnormal, worst severity Severe: N (%): 0
Feeling abnormal: Events: 4
Feeling of relaxation: Events: 5
Feeling of relaxation: N (%): 3 (10.0)
Gastrointestinal disorders, worst severity Mild: Events: 3
Gastrointestinal disorders, worst severity Mild: N (%): 3 (10.0)
Gastrointestinal disorders, worst severity Moderate: Events: 1
Gastrointestinal disorders, worst severity Severe: Events: 0
Gastrointestinal disorders, worst severity Severe: N (%): 0
Gastrointestinal disorders: Events: 4
General disorders and administration site conditions, worst severity Mild: Events: 17
General disorders and administration site conditions, worst severity Moderate: Events: 6
General disorders and administration site conditions, worst severity Moderate: N (%): 3 (10.0)
General disorders and administration site conditions, worst severity Severe: Events: 1
General disorders and administration site conditions: Events: 27
Hallucination, auditory, worst severity Mild: Events: 1
Hallucination, auditory, worst severity Moderate: Events: 1
Hallucination, auditory, worst severity Severe: Events: 2
Hallucination, auditory: Events: 4
Hallucination, tactile: Events: 2
Hallucination, visual, worst severity Mild: Events: 3
Hallucination, visual, worst severity Mild: N (%): 3 (10.0)
Hallucination, visual, worst severity Moderate: Events: 8
Hallucination, visual, worst severity Severe: Events: 7
Hallucination, visual: Events: 20
Hallucination, worst severity Mild: Events: 0
Hallucination, worst severity Mild: N (%): 0
Hallucination, worst severity Moderate: Events: 3
Hallucination, worst severity Moderate: N (%): 3 (10.0)
Hallucination, worst severity Severe: Events: 0
Hallucination, worst severity Severe: N (%): 0
Hallucination: Events: 3
Hallucination: N (%): 3 (10.0)
Headache, worst severity Mild: Events: 12
Headache, worst severity Mild: N (%): 9 (30.0)
Headache, worst severity Moderate: Events: 0
Headache, worst severity Moderate: N (%): 0
Headache, worst severity Severe: Events: 0
Headache, worst severity Severe: N (%): 0
Headache: Events: 12
Headache: N (%): 9 (30.0)
Hypoaesthesia, worst severity Mild: Events: 2
Hypoaesthesia, worst severity Moderate: Events: 0
Hypoaesthesia, worst severity Moderate: N (%): 0
Hypoaesthesia, worst severity Severe: Events: 0
Hypoaesthesia, worst severity Severe: N (%): 0
Hypoaesthesia: Events: 2
Illusion, worst severity Mild: Events: 7
Illusion, worst severity Moderate: Events: 6
Illusion, worst severity Severe: Events: 0
Illusion, worst severity Severe: N (%): 0
Illusion: Events: 25
Infections and infestations, worst severity Mild: Events: 2
Infections and infestations, worst severity Moderate: Events: 2
Infections and infestations, worst severity Severe: Events: 0
